What was measured:
Format in all cases: cell-based, human
[1] = tested on: SRC-2 protein in C4-2 cells; assay: Western blot of SRC-2 protein level after kinase inhibitor treatment; details: for SRC-2 protein level compared to DMSO-treated cells: Torin 250 nM, 12 hours
Procedure: FIG. 4—Glutamine stimulation induces mTORC1-dependent SRC-2 transcriptional activity. (A) Western blot analysis of FASN, SCD, SRC-2 and actin in C4-2 stable cells—shNT, sh18 and sh19 grown in high glucose (11 mM)/low glutamine (0.2 mM) or low glucose (5 mM)/high glutamine (2 mM). Actin was used as a control to normalize the protein loading. Semiquantitative levels of each band were analyzed by densitometry using UVP Vision Works LS software and relative values (compared to shNT) normalized to actin are indicated numerically under each lane. (B) C4-2 cells were cultured in presence of high glucose (11 mM)/low glutamine (0.2 mM) or low glucose (5 mM)/high glutamine (2 mM) and then treated with kinase inhibitors: BEZ-235 (1 uM); Rapamycin (100 nM); Torin (250 nM); and Wortmannin (250 nM). Western blot analyses were performed to measure the stability of SRC-2 protein. Semi-quantitative levels of each band were analyzed by densitometry using UVP Vision Works LS software and relative values (compared to DMSO) normalized to actin are indicated numerically under each lane. (C) Immunoprecipitation of HA-SRC-2 followed by Western immunoblot to detect the phosphorylation status of SRC-2 using phospho-serine/threonine antibody. Input lysates were obtained from C4-2 cells expressing Adv.GFP or Adv. SRC-2, and subsequently stimulated with increasing concentration of glutamine—[…] followed by treatment with DMSO or mTORC1 inhibitor-Torin (250 nM). Actin was used to normalize the input loading. Semiquantitative levels of phospho-SRC-2 were analyzed by densitometry using UVP Vision Works LS software and relative values (compared to lane 2) normalized to actin are indicated numerically under each lane. (D) PC-3 cells expressing either Adv.GFP or Adv. SRC-2 were transfected with FASN-luc construct and stimulated with high glucose (11 mM)/low glutamine (0.2 mM) or high glutamine (2 mM)/low glucose (5 mM) followed by treatment with DMSO or Torin (250 nM). Lucifrease assay was then performed to measure the FASN promoter activity and data were normalized to total protein. […]

[2] = tested on: C4-2 and PC-3 cells; assay: Oxygen consumption rate (Seahorse XF24); details: C4-2 and PC-3 stable cells; oligomycin 25-40 min time frame, FCCP 45-65 min time frame
Procedure: (A) Real-time measurement of basal and maximal oxygen consumption rate (OCR) in C4-2 stable cells—shNT, sh18 and sh19. (B, C) Basal and maximal OCR in C4-2 stable cells—shNT, sh18 and sh19 were measured in DMSO control (B) or FCCP-treated (C) cells cultured in presence of high glucose (11 mM)/low glutamine (0.2 mM) or low glucose (5 mM)/high glutamine (2 mM). […] Data are graphed as the mean±s.e.m. *P<0.05, **P<0.001 by Student's t test.
(A) Real-time measurement of basal and maximal oxygen consumption rate (OCR) in PC-3 stable cells—shNT, sh18, and sh19. (B, C) Basal and maximal OCR in PC-3 stable cells—shNT, sh18, and sh19 were measured in DMSO control or FCCP-treated cells cultured in presence of high glucose (11 mM)/low glutamine (0.2 mM) or low glucose (5 mM)/high glutamine (2 mM). […] Data are graphed as the mean±s.e.m. *P<0.05, **P<0.001 by Student's t test.
The oxygen consumption rate (OCR) was measured using a Seahorse Bioscience XF24 Extracellular Flux Analyzer according to manufacturer's protocol. Briefly, cells were seeded in triplicates at equal densities (25,000 cells per well) into XF24 tissue culture plates. […] Oxygen consumption was measured under basal conditions (DMSO), oligomycin and mitochondrial uncoupler trifluoromethoxy carbonyl cyanide phenyl 59ydrazine (FCCP) (2 mM) using the mito-stress kit (Seahorse Bioscience). […]

[3] = tested on: C4-2 and PC-3 cells; assay: Cell growth assay (Cellglo); details: C4-2 and PC-3 shNT cells; BPTES 1 μM, 4 days
Procedure: FIG. 6—SRC-2 is essential for prostate cancer cell survival. (A) Representative images depicting the growth of C4-2 stable cells—shNT, sh18 and sh19 in soft agar assay two weeks after plating. (B) Quantification of the total number of C4-2 stable cell colonies that survived after two weeks. (C) H&E stained sections of mouse lungs from experimental lung metastasis assay. Nude mice were injected with PC-3 cells stably expressing shNT, sh18 and sh19 via tail vein (n=7), and growth and survival of the cells in mouse lungs were analyzed after 5 weeks. (D) Quantification of Ki67 (antibody epitope reacts with human Ki67 protein) stained cells in the mouse lung sections from shNT, sh18 and sh19-injected animals. Refer Supplementary FIG. 14C. (E) Western blot analysis showing the expression levels of SRC-2, FASN, SCD and actin in C4-2 stable cells—shNT and sh19, and re-expression of SRC-2 in sh19 cells infected with Adv. SRC-2. Actin was used to normalize the protein loading. […]
Cells were seeded in 96-well plates in complete medium, and after the cells attached to the bottom surface they were incubated in nutrient-stressed medium. The cell growth was measured using Cellglo kit (Promega) according to manufacturer's instructions. […]

[4] = tested on: SRC-2 driven FASN-promoter activity in PC-3 cells; assay: FASN-luc luciferase reporter assay; details: PC-3 cells expressing Adv. SRC-2, high glutamine (2 mM)/low glucose (5 mM); Torin 250 nM
Procedure: FIG. 4—Glutamine stimulation induces mTORC1-dependent SRC-2 transcriptional activity. (A) Western blot analysis of FASN, SCD, SRC-2 and actin in C4-2 stable cells—shNT, sh18 and sh19 grown in high glucose (11 mM)/low glutamine (0.2 mM) or low glucose (5 mM)/high glutamine (2 mM). Actin was used as a control to normalize the protein loading. Semiquantitative levels of each band were analyzed by densitometry using UVP Vision Works LS software and relative values (compared to shNT) normalized to actin are indicated numerically under each lane. […] Semi-quantitative levels of each band were analyzed by densitometry using UVP Vision Works LS software and relative values (compared to DMSO) normalized to actin are indicated numerically under each lane. […] Semiquantitative levels of phospho-SRC-2 were analyzed by densitometry using UVP Vision Works LS software and relative values (compared to lane 2) normalized to actin are indicated numerically under each lane. […]
Luciferase assays were performed using Luciferase Reporter Assay (Promega) and a Berthold 96 well plate reader. […]
Luciferase promoter constructs were obtained from following sources: FASN-Addgene, SCD-Switchgear genomics and ZIP1—Peter Makhov (Fox Chase Cancer Center). […] Cells were harvested two days after transfection and luciferase assay performed using a Luciferase Reporter Assay (Promega) and a Berthold 96 well plate reader. […]

[5] = tested on: recruitment of SRC-2 to the FASN and SCD promoters in C4-2 cells; assay: ChIP of SRC-2 on FASN and SCD promoters; details: glutamine stimulation (2 mM), Torin 250 nM
[6] = tested on: SRC-2 protein stability in C4-2 cells; assay: Cycloheximide protein stability assay; details: high glutamine (2.0 mM), cycloheximide 0.5 mM, Torin 250 nM
Procedure: FIG. 14—Glutamine-dependent mTORC1 phosphorylation controls SRC-2 protein stability. (A) C4-2 cells were cultured in presence of low glutamine (0.2 mM) and high glutamine (2.0 mM) followed by treatment with cycloheximide (0.5 mM) for indicated time points. Western blot showing the total-level of SRC-2 and actin was used as a loading control. (B) C4-2 cells were cultured in presence of high glutamine (2.0 mM) followed by either treatment with DMSO and Torin. Cycloheximide (0.5 mM) was then added to the cells for indicated time points. Western blot showing the total-level of SRC-2 and actin was used as a loading control.
SRC-2 protein stability was studied by cycloheximide treatment experiments in C4-2 cells for different time points as described previously (Li C, Jo A, et al, 2011). C4-2 cells were cultured in low glutamine (0.2 mM) or high glutamine (2.0 mM) followed by treatment with cycloheximide (0.5 mM). For Torin treatment, C4-2 cells cultured in high glutamine were either treated with DMSO (vehicle-control) or Torin (250 nM) prior to cyclohexamide treatments. Cells were lysed followed by Western immunoblotting.

[7] = tested on: SRC-2 mRNA in C4-2 cells; assay: Quantitative real time PCR of SRC-2 messenger after kinase inhibitor treatment; details: Torin 250 nM
Procedure: FIG. 13—Glutamine stimulation activates SRC-2 transcriptional functions in an mTORC1 dependent manner. (A) Quantitative real time PCR analysis of FASN, SCD and SRC-2 in C4-2 cells were treated with siGFP (control) or siSRC-2 and cultured in nutrient stressed conditions—high glucose (11 mM)/low glutamine (0.2 mM) or low glucose (5 mM)/high glutamine (2 mM). (B) Quantitative real time PCR analysis of SRC-2 in C4-2 cells expressing siGFP (control) or siSRC-2 and then treated with BEZ-235 (1 uM); Rapamycin (100 nM); Torin (250 nM); and Wortmannin (250 nM). (C) Western blot analysis showing the expression of phospho-S6K (p-S6K), phospho-4EBP1 (p-4EBP1) and actin in C4-2 cells stimulated with increasing concentration of glutamine followed by treatment with DMSO or mTORC1 inhibitor-Torin. Actin was used to normalize the protein loading.
Total mRNA was isolated from prostate cancer cells, tissues and tumors using the RNeasy Kit (QIAGEN). Reverse transcription was carried out using Superscript VILO cDNA synthesis kit (Invitrogen, CA) according to the manufacturer's instructions. For gene expression analysis, qPCR was performed using the Taqman system (Roche) with sequence-specific primers and the Universal Probe Library (Roche). […] Data was analyzed using the comparative Ct method (ΔΔCt). […] Data obtained was analyzed using RT^2 Profiler™ PCR Array Data Analysis software (SA Bioscineces, CA). […]

[8] = tested on: SRC-2 serine/threonine phosphorylation in C4-2 cells; assay: Immunoprecipitation of HA-SRC-2 and phospho-serine/threonine immunoblot; details: C4-2 cells expressing Adv. SRC-2 (HA-SRC-2), glutamine stimulated; Torin 250 nM, 4 hours pre-treatment
Procedure: FIG. 4—Glutamine stimulation induces mTORC1-dependent SRC-2 transcriptional activity. (A) Western blot analysis of FASN, SCD, SRC-2 and actin in C4-2 stable cells—shNT, sh18 and sh19 grown in high glucose (11 mM)/low glutamine (0.2 mM) or low glucose (5 mM)/high glutamine (2 mM). Actin was used as a control to normalize the protein loading. Semiquantitative levels of each band were analyzed by densitometry using UVP Vision Works LS software and relative values (compared to shNT) normalized to actin are indicated numerically under each lane. (B) C4-2 cells were cultured in presence of high glucose (11 mM)/low glutamine (0.2 mM) or low glucose (5 mM)/high glutamine (2 mM) and then treated with kinase inhibitors: BEZ-235 (1 uM); Rapamycin (100 nM); Torin (250 nM); and Wortmannin (250 nM). Western blot analyses were performed to measure the stability of SRC-2 protein. Semi-quantitative levels of each band were analyzed by densitometry using UVP Vision Works LS software and relative values (compared to DMSO) normalized to actin are indicated numerically under each lane. […] Semiquantitative levels of phospho-SRC-2 were analyzed by densitometry using UVP Vision Works LS software and relative values (compared to lane 2) normalized to actin are indicated numerically under each lane. […]

`Cn1c(=O)n(-c2ccc(C(C)(C)C#N)cc2)c2c3cc(-c4cnc5ccccc5c4)ccc3ncc21` [BEZ-235] was tested. Which SRC-2 protein stability ([1]; either culture condition (high glucose/low glutamine or low glucose/high glutamine), BEZ-235 1 uM) did it give?
The SRC-2 protein stability was “failed to show any effect”.

With `N#CC(C#N)=NNc1ccc(OC(F)(F)F)cc1` [FCCP, Carbonyl cyanide 4-(trifluoromethoxy)phenylhydrazone] as the compound, how does the “Oxygen consumption rate (OCR)” value [2] read?
Its value is “dramatically enhanced”.

Which “Prostate cancer cell growth compared to DMSO” value [3] does the source give for `O=C(Cc1ccccc1)Nc1nnc(CCSCCc2nnc(NC(=O)Cc3ccccc3)s2)s1` [BPTES] here?
Its value is “robust decrease”.

How did the “Oxygen consumption rate (OCR)” value [2] turn out when `CC[C@H]1/C=C/C=C/C[C@@H](C)[C@H](O)[C@@](C)(O)C(=O)[C@@H](C)[C@H](O)[C@@H](C)C(=O)[C@@H](C)[C@H](O)[C@@H](C)/C=C/C(=O)O[C@@H]2[C@H](C)[C@H](CC1)O[C@]1(CC[C@H](C)[C@H](C[C@@H](C)O)O1)[C@H]2C` [oligomycin] was run?
The value was “decreased the oxygen consumption”.

With `CCC(=O)N1CCN(c2ccc(-n3c(=O)ccc4cnc5ccc(-c6cnc7ccccc7c6)cc5c43)cc2C(F)(F)F)CC1` [Torin] as the compound, how does the “Glutamine dependent SRC-2 driven FASN-promoter activity” value [4] read?
The value was “significantly blocked”.

And the “Glutamine dependent recruitment of SRC-2 to the FASN and SCD promoters” value [5]?
The value was “significantly blocked”.

And the “SRC-2 protein level compared to DMSO-treated cells” value ([1]; glutamine-stimulated (low glucose 5 mM/high glutamine 2 mM), Rapamycin 100 nM)?
The value was “down-regulated”.

What about the “SRC-2 protein level compared to DMSO-treated cells” value ([1]; high glucose (11 mM)/low glutamine (0.2 mM), Wortmannin 250 nM) of the same compound?
The value was “not observed”.

What about the “Glutamine-increased SRC-2 protein stability (cycloheximide time course)” value [6] of the same compound?
The value was “completely suppressed”.

And the SRC-2 messenger expression [7]?
Its SRC-2 messenger expression is “without any appreciable change”.

And the “Glutamine-induced SRC-2-serine/threonine phosphorylation” value [8]?
The value was “reversed”.
